Experimental data as given in US11584766B2, “Nicotinamide phosphoribosyltransferase inhibitors and methods for use of the same” (THE TRUSTEES OF INDIANA UNIVERSITY, priority 2018, dated 2023).
Entries after “also recorded” stand apart in the source; their conditions may differ. Read-outs that look alike come from different tables or passages of the source.

Key:
[1] = system: human pulmonary artery endothelial cells (hPAECs); assay: PrestoBlue Assay (viability), hPAEC; format: cell-based; details: for effect on HPAEC viability: dose response, FIG. 4; for IC50: hPAEC, 24 h treatment
Procedure: (§1) The effect of the compounds disclosed herein on the viability, proliferation, and apoptosis of human pulmonary artery endothelial cells (“hPAECs,”) and human pulmonary artery smooth muscle cells (“hPASMCs”) was determined using the PrestoBlue Assay (viability), CYQuant Direct or BrdU Assay (proliferation) or Tunel Assay (apoptosis), as described below.
(§2) HPAECs (1×10^4 cells/well) or HPASMCs (2.5×10^3 cells/well) were seeded in 96-well plates for 24 h in full-serum tissue culture medium. The full medium was removed prior to treatment with a NAMPT inhibitor prepared in medium containing 0.1% serum. NAMPT inhibitors were solubilized in 100% DMSO, unless otherwise indicated, prior to preparation of the dose response curve in 100% DMSO. The treatment dose response curve was diluted in 0.1% serum tissue culture medium and administered to cells for 24 h. DMSO diluted in the same medium was used as the vehicle control. Cell viability was measured according to the manufacturer's protocol by adding the PrestoBlue Cell Viability Reagent (ThermoFisher Scientific, #A13261) to cells for 20 min at 37° C. in a tissue culture incubator, followed by reading fluorescence at ex560/em590. Cell proliferation was measured, either in the same wells or in separate experiments, by adding the CyQuant Direct Confirmation Reagent (ThermoFisher Scientific, #C35011) for 1 h at 37° C. in a tissue culture incubator, followed by reading fluorescence at ex485/em538. Proliferation was also measured, in separate experiments, using the BrdU Cell Proliferation Assay (Calbiochem, #QIA58). After treatment with a NAMPT inhibitor for 24 h, BrdU was added to the cells in the presence of the inhibitor, for an additional 24 h and BrdU incorporation was detected according to the manufacturer's protocol. Apoptosis was analyzed by seeding cells (1×10^5 cells/well) in 6-well plates for 24 h in full-serum medium, followed by treatment with a NAMPT inhibitor for 24 h in full-serum medium. Tunel staining and detection was performed using the Tunel Assay Kit (Abcam, #ab66110) according to the manufacturer's protocol.

[2] = system: human pulmonary artery endothelial cells (hPAECs); assay: CyQUANT Direct Assay (proliferation), hPAEC; format: cell-based; details: for effect on HPAEC proliferation (CYQuant Direct assay): dose response, FIG. 5; for IC50: hPAEC, 24 h treatment
Procedure: as §1, §2

[3] = Solubility (2.5% v/v DMSO/water); format: physicochemical
[4] = biological target: T1, NAMPT (Homo sapiens, UniProt P43490); assay: CycLex NAMPT Colorimetric Assay; format: biochemical; details: for IC50: CycLex NAMPT Colorimetric Assay Kit, read-out: NAMPT Inhibition IC50
T1 construct: purchased MBL International Corporation (CycLex NAMPT Colorimetric Assay Kit Ver.2)
T1 sequence (P43490 whole entry): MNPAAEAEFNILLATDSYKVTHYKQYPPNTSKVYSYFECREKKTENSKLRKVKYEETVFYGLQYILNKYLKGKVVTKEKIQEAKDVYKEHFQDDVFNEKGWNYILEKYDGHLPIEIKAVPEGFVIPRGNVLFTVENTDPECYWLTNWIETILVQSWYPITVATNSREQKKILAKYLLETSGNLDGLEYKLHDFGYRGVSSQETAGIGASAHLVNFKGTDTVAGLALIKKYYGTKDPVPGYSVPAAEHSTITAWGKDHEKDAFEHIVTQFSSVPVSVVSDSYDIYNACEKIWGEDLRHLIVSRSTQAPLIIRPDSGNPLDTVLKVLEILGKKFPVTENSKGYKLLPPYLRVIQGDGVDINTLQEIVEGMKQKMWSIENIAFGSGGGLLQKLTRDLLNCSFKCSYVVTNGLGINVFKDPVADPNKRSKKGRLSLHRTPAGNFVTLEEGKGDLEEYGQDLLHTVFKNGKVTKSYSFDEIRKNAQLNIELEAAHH
Procedure: The ability of the compounds of the disclosure to inhibit NAMPT was determined using the CycLex NAMPT Colorimetric Assay Kit Ver.2 by MBL International Corporation.
The assay detects NAMPT activity in recombinant NAMPT or endogenous NAMPT immunoprecipiated from cell lysates according to the scheme shown in FIG. 3. In this method, NAMPT converts nicotinamide to nicotinamide mononucleotide (“NMN”). Subsequently, nicotinamide mononucleotide adenylyltransferase 1 (“NMNAT1”) converts NMN to NAD^+. Resultant NAD^+ can be measured by enzyme cycling reaction using alcohol dehydrogenase (“ADH”), diaphorase and WST-1.

[5] = system: human pulmonary artery endothelial cells (hPAECs); assay: BrdU Assay (proliferation), hPAEC; format: cell-based; details: for effect on HPAEC proliferation (BrdU assay): dose response, FIG. 6; for IC50: Homo sapiens, Endothelial cell
Procedure: as §1, §2

[6] = system: human pulmonary artery smooth muscle cells (hPASMCs); assay: BrdU Assay (proliferation), hPASMC; format: cell-based
Procedure: as §1, §2

[7] = system: human pulmonary artery smooth muscle cells (hPASMCs); assay: CyQUANT Direct Assay (proliferation), hPASMC; format: cell-based; details: dose response, FIG. 9
Procedure: as §1, §2

[8] = system: human pulmonary artery smooth muscle cells (hPASMCs); assay: PrestoBlue Assay (viability), hPASMC; format: cell-based; details: for effect on HPASMC viability: dose response, FIG. 8
Procedure: as §1, §2

[9] = system: human pulmonary artery endothelial cells (hPAECs); assay: Tunel Assay (apoptosis), hPAEC; format: cell-based
Procedure: as §1, §2

[10] = system: human pulmonary artery smooth muscle cells (hPASMCs); assay: Tunel Assay (apoptosis), hPASMC; format: cell-based
Procedure: as §1
HPAECs (1×10^4 cells/well) or HPASMCs (2.5×10^3 cells/well) were seeded in 96-well plates for 24 h in full-serum tissue culture medium. The full medium was removed prior to treatment with a NAMPT inhibitor prepared in medium containing 0.1% serum. NAMPT inhibitors were solubilized in 100% DMSO, unless otherwise indicated, prior to preparation of the dose response curve in 100% DMSO. […] Cell viability was measured according to the manufacturer's protocol by adding the PrestoBlue Cell Viability Reagent (ThermoFisher Scientific, #A13261) to cells for 20 min at 37° C. in a tissue culture incubator, followed by reading fluorescence at ex560/em590. Cell proliferation was measured, either in the same wells or in separate experiments, by adding the CyQuant Direct Confirmation Reagent (ThermoFisher Scientific, #C35011) for 1 h at 37° C. in a tissue culture incubator, followed by reading fluorescence at ex485/em538. Proliferation was also measured, in separate experiments, using the BrdU Cell Proliferation Assay (Calbiochem, #QIA58). […]

[11] = Plasma concentration and biochemical parameters in MCT-induced rats; format: in vivo, rat
Source text: Moreover, significant abnormalities in biochemical parameters and electrolytes were not observed.

[12] = system: HepG2 cells; assay: Seahorse XF Metabolism Assay (Cell Energy Phenotype Test); format: cell-based; parameters: Baseline OCR / Stressed OCR / Baseline ECAR / Stressed ECAR: unit not given here
Procedure: The effect of the compounds disclosed herein on metabolism was determined using the Seahorse XF Cell Energy Phenotype Test Kit by Agilent Technologies. See Agilent Seahorse XF Cell Energy Phenotype Test Kit, User Guide, Manual Part Number 103325-400, Kit Part Number 103325-100, First Edition, March 2017 Agilent Technologies, Inc. This assay measures mitochondrial respiration and glycolysis under baseline and stressed conditions to determine baseline phenotype, stressed phenotype, and metabolic potential.

[13] = system: monocrotaline (MCT)-induced pulmonary hypertension; assay: MCT-induced pulmonary hypertension in rats; format: in vivo, rat; details: 5 mg/kg every other day IP, days 22-35
Procedure: (§3) The ability of the compounds disclosed herein to attenuate pulmonary vascular remodeling associated with pulmonary arterial hypertension was determined using monocrotaline (“MCT”)-induced pulmonary hypertension as well as Sugen-Hypoxia-induced pulmonary hypertension in rats.
MCT 60 mg/kg IP was injected in Sprague Dawley rats. After 21 days when PH was established DGMS-RARI (5 mg/kg every other day) was injected intraperitonealy from days 22-35. At day 35 PH assessments (RVSP measurements via right heart catheterization, RVH measurement via assessment of the ratio between the weight of the right ventricle over the weight of the left ventricle+septum and pulmonary vascular remodeling assessment of H&E stained pulmonary arteries) were performed.

[14] = system: Sugen-Hypoxia-induced pulmonary hypertension; assay: Sugen-Hypoxia-induced pulmonary hypertension in rats; format: in vivo, rat; details: 5 mg/kg every other day IP, days 35-49
Procedure: as §3
Sugen 10 mg/kg IP was injected in Sprague Dawley rats who were then exposed to 10% hypoxia for 21 days. After 21 rats were returned to normoxia for 14 days. After 35 when PH was established DGMS-RARI (5 mg/kg every other day) was injected intraperitonealy from days 35-49. At day 49 PH assessments (RVSP measurements via right heart catheterization, RVH measurement via assessment of the ratio between the weight of the right ventricle over the weight of the left ventricle+septum and assessment of right ventricular function via echocardiography) were performed.

[15] = system: vascular remodeling caused by PAH; details: rat models; cited from earlier work
[16] = Homo sapiens, Endothelial cell, 24 h

Compound: COCCOCCOCCOCCOC(=O)CC1CN(C(=O)CCCCCNC(=O)/C=C/c2cccnc2)c2ccccc21 (stereo not drawn) [DGMS-RAR-PEG3]
- effect on HPAEC viability [1]: dose-dependently decrease cell viability
- effect on HPAEC proliferation (CYQuant Direct assay) [2]: dose-dependently decrease cell proliferation
- Solubility (2.5% v/v DMSO/water) [3]: Good
- IC50 [4]: 0.021 µM

Compound: CC[Si]1(CC)c2ccccc2N(C(=O)CCCCCNC(=O)/C=C/c2cccnc2)C1C (stereo not drawn) [DGMS-RAR-5]
- effect on HPAEC proliferation (BrdU assay) [5]: dose-dependently decrease cell proliferation
- IC50 ([6]; Homo sapiens): 102 µM
- IC50 [4]: 0.011 µM

Compound: CC1Cc2ccccc2N1C(=O)CCCCCNC(=O)/C=C/c1cccnc1 (stereo not drawn)
- effect on HPAEC proliferation (BrdU assay) [5]: dose-dependently decrease cell proliferation
- IC50 ([6]; Homo sapiens): 51.9 µM

Compound: CC[Si]1(CC)c2ccccc2N(C(=O)CCCCCNC(=O)/C=C/c2cccnc2)C1C.Cl (stereo not drawn) [DGMS-RAR-5•HCl]
- effect on HPASMC proliferation (CYQuant Direct assay) [7]: dose-dependently decrease cell proliferation
- Solubility (2.5% v/v DMSO/water) [3]: Good
- effect on HPASMC viability [8]: dose-dependently decrease cell viability
- inhibition at 10 µM ([4]; 10 μM): 98%
- IC50 [4]: 0.023 µM

Compound: O=C(/C=C/c1cccnc1)NCCCCCC(=O)N1c2ccccc2CC1c1ccccc1 (stereo not drawn) [DGMS-RAR-7]
- effect on HPAEC viability [1]: dose-dependently decrease cell viability
- IC50 [1]: 1.59 µM
- effect on HPAEC proliferation (CYQuant Direct assay) [2]: dose-dependently decrease cell proliferation
- IC50 [2]: 1 µM
- IC50 [5]: 95.8 µM
- effect on HPAEC proliferation (BrdU assay) [5]: dose-dependently decrease cell proliferation
- IC50 [6]: 35400 µM
- IC50 [4]: 0.041 µM

Compound: O=C(/C=C/c1cccnc1)NCCCCCC(=O)N1c2ccccc2CC1c1ccccc1 (stereo not drawn) [DGMS-RAR-7•HO3SMe]
- effect on HPAEC viability [1]: dose-dependently decrease cell viability; also recorded: reduction
- IC50 [1]: 17.1 µM
- effect on HPAEC proliferation (CYQuant Direct assay) ([2]; listed as DGMS-RAR-7-HO3SMe): dose-dependently decrease cell proliferation
- effect on HPAEC proliferation (CYQuant Direct assay) ([2]; listed as DGMS-RAR-7.HO3SMe): reduction
- IC50 [2]: 31.9 µM
- effect on HPASMC proliferation (CYQuant Direct assay) [7]: dose-dependently decrease cell proliferation
- effect on HPAEC apoptosis ([9]; dose response, FIG. 7): dose-dependently decrease apoptosis
- IC50 ([9]; hPAEC): 117 µM
- effect on HPASMC viability [8]: dose-dependently decrease cell viability
- IC50 ([8]; hPASMC, 24 h treatment): 26.6 µM
- effect on HPAEC proliferation (BrdU assay) [5]: dose-dependently decrease cell proliferation
- IC50 [10]: 94.1 µM

Compound: O=C(/C=C/c1cccnc1)NCCCCCCn1c(-c2ccccc2)cc2ccccc21 [DGMS-RARI]
- abnormalities in biochemical parameters and electrolytes ([11]; 5 mg/kg): not observed
- average concentration in rat plasma ([11]; 5 mg/kg intravenously, intraperitoneally and orally): decreased with time
- IC50 [1, 16]: 117 µM
- effect on HPAEC viability [1]: dose-dependently decrease cell viability
- IC50 [2, 16]: 2.88 µM
- effect on HPAEC proliferation (CYQuant Direct assay) [2]: dose-dependently decrease cell proliferation
- Baseline ECAR ([12]; HepG2, 80 nM): 16.16
- Baseline OCR ([12]; HepG2, 80 nM): 98.19
- Metabolic Potential (% Baseline ECAR) ([12]; HepG2, 80 nM): 288.54 % Baseline ECAR
- Metabolic Potential (% Baseline OCR) ([12]; HepG2, 80 nM): 154.82 % Baseline OCR
- Stressed ECAR ([12]; HepG2, 80 nM): 46.64
- Stressed OCR ([12]; HepG2, 80 nM): 152.08
- Baseline ECAR ([12]; HepG2, 2 uM): 12.28
- Baseline OCR ([12]; HepG2, 2 uM): 73.92
- Metabolic Potential (% Baseline ECAR) ([12]; HepG2, 2 uM): 334.84 % Baseline ECAR
- Metabolic Potential (% Baseline OCR) ([12]; HepG2, 2 uM): 154.18 % Baseline OCR
- Stressed ECAR ([12]; HepG2, 2 uM): 37.11
- Stressed OCR ([12]; HepG2, 2 uM): 111.06
- Baseline ECAR ([12]; HepG2, 10 uM): 18.28
- Baseline OCR ([12]; HepG2, 10 uM): 60.26
- Metabolic Potential (% Baseline ECAR) ([12]; HepG2, 10 uM): 194.22 % Baseline ECAR
- Metabolic Potential (% Baseline OCR) ([12]; HepG2, 10 uM): 148.94 % Baseline OCR
- Stressed ECAR ([12]; HepG2, 10 uM): 31.23
- Stressed OCR ([12]; HepG2, 10 uM): 89.62
- inhibition at 10 µM ([12]; Homo sapiens, HepG2 cells, high doses (10 uM), read-out: inhibition of the maximal oxygen consumption rate): ~30%
- effect on cellular respiration ([12]; physiological doses (≤80 nM)): no effect on cellular respiration
- effect on HPASMC viability [8]: dose-dependently decrease cell viability
- degree of pulmonary vascular remodeling [13]: decreased
- degree of right ventricular hypertrophy [13]: decreased
- severity of elevations in RVSP [13]: decreased
- inhibition at 10 µM [4]: 98%
- IC50 [4]: 0.014 µM
- degree of right ventricular dysfunction [14]: decreased
- degree of right ventricular hypertrophy [14]: decreased
- severity of elevations in RVSP [14]: decreased

Compound: COCCOCCOCCOCCOC(=O)Cc1cn(CCCCCCNC(=O)/C=C/c2cccnc2)c2ccccc12 [DGMS-RAR-PEG2]
- effect on HPAEC viability [1]: dose-dependently decrease cell viability
- Solubility (2.5% v/v DMSO/water) [3]: Moderate
- inhibition at 10 µM [4]: 97%
- IC50 [4]: 0.021 µM

Compound: O=C(/C=C/c1cccnc1)NCCCCCCN1c2ccccc2CCc2ccccc21 [DGMS-RAR-2]
- IC50 [5]: 1.31 µM
- effect on HPAEC proliferation (BrdU assay) [5]: dose-dependently decrease cell proliferation
- IC50 ([6]; Homo sapiens): 1.5 µM
- IC50 [4]: 0.08 µM

Compound: N#CN=C(NCCCCCCOc1ccc(Cl)cc1)Nc1ccncc1 [CHS-828]
- vascular remodeling caused by PAH [15]: prevent and reverse
